Patent publication US20250230155A1 (Vanderbilt University, priority 2021, published 2025)
Read-outs that look alike come from different tables or passages of the source.

Target: T1, human mAChR M4 (Homo sapiens, UniProt P08173)
T1 construct: expressed in transfected cells
T1 sequence (P08173 1-479): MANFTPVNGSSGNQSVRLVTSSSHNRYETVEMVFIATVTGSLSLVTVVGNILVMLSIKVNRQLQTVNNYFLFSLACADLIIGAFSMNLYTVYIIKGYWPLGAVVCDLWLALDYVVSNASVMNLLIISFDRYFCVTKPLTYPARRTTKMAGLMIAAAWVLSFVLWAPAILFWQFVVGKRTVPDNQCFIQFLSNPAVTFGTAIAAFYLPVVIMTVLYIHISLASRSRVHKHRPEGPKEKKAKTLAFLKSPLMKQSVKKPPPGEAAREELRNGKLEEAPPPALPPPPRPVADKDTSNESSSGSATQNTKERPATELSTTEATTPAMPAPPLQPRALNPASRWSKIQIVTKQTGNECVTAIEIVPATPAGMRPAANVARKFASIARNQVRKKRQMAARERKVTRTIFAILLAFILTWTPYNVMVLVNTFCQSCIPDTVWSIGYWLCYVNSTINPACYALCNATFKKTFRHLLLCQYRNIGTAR
Experiment: mAChR M4 cell-based functional assay (calcium mobilization, CHO-K1 hM4-Gqi5 cells)
Conditions: for Emax at 30 µM: CHO-K1, % ACh maximum at 30 μM, human M4; for EC50: increase in the EC20 acetylcholine response, CHO-K1 hM4-Gqi5 cells; for Emax: CHO-K1
Procedure, shortened: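 CHO-K1 cells stably expressing human M4 with chimeric Gqi5, loaded with Fluo-4 AM; compounds given as 11-point 1:3 curves and calcium flux read on FDSS at 1 Hz. Acetylcholine EC20 added at 144 s, EC80 at 230 s; agonist, PAM (EC20 potentiation) and antagonist (EC80 inhibition) EC50/Emax from four-parameter fits.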

[1] = positive allosteric modulator activity, read-out: Human M4 EC50

`Cc1ccc(Nc2cnc3c(c2)CN(c2ncc(C#N)cc2C)CC3)c(F)n1` [compound 132, 6-[3-[(2-fluoro-6-methyl-3-pyridyl)amino]-7,8-dihydro-5H-1,6-naphthyridin-6-yl]-5-methyl-pyridine-3-carbonitrile] gave an Emax at 30 µM of 96% and an EC50 [1] of 234 nM.
Molecule `Cc1c(Cl)nc(C(F)(F)F)nc1N1CCc2ncc(Nc3ccnn3C)cc2C1` [compound 247, 6-(6-chloro-5-methyl-2-(trifluoromethyl)pyrimidin-4-yl)-N-(1-methyl-1H-pyrazol-5-yl)-5,6,7,8-tetrahydro-1,6-naphthyridin-3-amine] has an Emax at 30 µM of 91% and an EC50 [1] of 764 nM.
Molecule `Cc1cc(C#N)cnc1N1CCc2ncc(Oc3ccc4c(cnn4C)c3)cc2C1` [compound 183, 5-methyl-6-[3-(1-methylindazol-5-yl)oxy-7,8-dihydro-5H-1,6-naphthyridin-6-yl]pyridine-3-carbonitrile] has an Emax at 30 µM of 91% and an EC50 [1] of 164 nM.
Molecule `Cc1nc(Cl)c(C)c(N2CCc3ncc(-c4cnn(C5CCC5)c4)cc3C2)n1` [compound 195, 6-(6-chloro-2,5-dimethyl-pyrimidin-4-yl)-3-(1-cyclobutylpyrazol-4-yl)-7,8-dihydro-5H-1,6-naphthyridine] has an Emax at 30 µM of 80% and an EC50 [1] of 611 nM.
With `Cc1cc(C(=O)N2CC(C)(O)C2)nnc1N1CCc2ncc(-n3cccn3)cc2C1` [Example 534, (6-(3-(1H-pyrazol-1-yl)-7,8-dihydro-1,6-naphthyridin-6(5H)-yl)-5-methylpyridazin-3-yl)(3-hydroxy-3-methylazetidin-1-yl)methanone] the Emax at 30 µM was 88% and the EC50 [1] was 322 nM.
With `Cc1nn(C)cc1-c1cnc2c(c1)CN(c1nc(Cl)nc3c1COC3)CC2` [compound 285, 2-chloro-4-(3-(1,3-dimethyl-1H-pyrazol-4-yl)-7,8-dihydro-1,6-naphthyridin-6(5H)-yl)-5,7-dihydrofuro[3,4-d]pyrimidine] the Emax at 30 µM was 30% and the EC50 [1] was 1220 nM.
Molecule `Cc1cc(C(=O)N2CC(F)C2)nnc1N1CCc2ncc(CC(F)(F)F)cc2C1` [Example 586, (3-fluoroazetidin-1-yl)(5-methyl-6-(3-(2,2,2-trifluoroethyl)-7,8-dihydro-1,6-naphthyridin-6(5H)-yl)pyridazin-3-yl)methanone] has an Emax at 30 µM of 99% and an EC50 [1] of 176 nM.
For `Cc1c(Cl)nc(C2CC2)nc1N1CCc2ncccc2C1` [compound 84, 6-(6-chloro-2-cyclopropyl-5-methyl-pyrimidin-4-yl)-7,8-dihydro-5H-1,6-naphthyridine], the Emax was 71% and the EC50 [1] was 2240 nM.
In the case of `Cc1nn(C)cc1-c1cnc2c(c1)CN(c1ncc(C(N)=O)cc1C(F)(F)F)CC2` [Example 487, 6-(3-(1,3-dimethyl-1H-pyrazol-4-yl)-7,8-dihydro-1,6-naphthyridin-6(5H)-yl)-5-(trifluoromethyl)nicotinamide], the Emax at 30 µM is reported as 38% and the EC50 [1] is reported as 2880 nM.
`[2H]C1([2H])Cc2ncc(Nc3ccncc3F)cc2C([2H])([2H])N1c1nnc(C#N)c(C)c1C` [Example 608, 6-(3-((3-fluoropyridin-4-yl)amino)-7,8-dihydro-1,6-naphthyridin-6(5H)-yl-5,5,7,7-d4)-4,5-dimethylpyridazine-3-carbonitrile] showed an Emax at 30 µM of 83% and an EC50 [1] of 4 nM.
`[2H]C1([2H])Cc2ncc(Nc3cc(C)ncc3F)cc2C([2H])([2H])N1c1nnc(C#N)c(C)c1C` [Example 600, 6-(3-((5-fluoro-2-methylpyridin-4-yl)amino)-7,8-dihydro-1,6-naphthyridin-6(5H)-yl-5,5,7,7-d4)-4,5-dimethylpyridazine-3-carbonitrile] was tested, and the Emax at 30 µM was 92% and the EC50 [1] was 26 nM.
For `Cc1cc(C#N)cnc1N1CCc2ncc(-n3cccn3)cc2C1` [Example 344, 6-(3-(1H-pyrazol-1-yl)-7,8-dihydro-1,6-naphthyridin-6(5H)-yl)-5-methylnicotinonitrile], the Emax at 30 µM was 88% and the EC50 [1] was 380 nM.
`Cc1nc(Cl)c(C)c(N2CCc3ncc(Nc4cccnc4F)cc3C2)n1` [compound 251, 6-(6-chloro-2,5-dimethylpyrimidin-4-yl)-N-(2-fluoropyridin-3-yl)-5,6,7,8-tetrahydro-1,6-naphthyridin-3-amine] showed an Emax at 30 µM of 93% and an EC50 [1] of 197 nM.
In the case of `Cc1cc(C#N)cnc1N1CCc2ncc(C(F)F)cc2C1` [Example 307, 6-(3-(difluoromethyl)-7,8-dihydro-1,6-naphthyridin-6(5H)-yl)-5-methylnicotinonitrile], the Emax is reported as 100% and the EC50 [1] is reported as 162 nM.
For `Cc1cc(C(=O)Nc2ccncc2)cnc1N1CCc2ncc(C(F)(F)F)cc2C1` [Example 442, 5-methyl-N-(pyridin-4-yl)-6-(3-(trifluoromethyl)-7,8-dihydro-1,6-naphthyridin-6(5H)-yl)nicotinamide], the Emax at 30 µM was 96% and the EC50 [1] was 424 nM.
`Cc1cc(C(=O)NC2(c3ccccn3)CC2)nnc1N1CCc2ncc(N3CCCn4nccc43)cc2C1` [Example 543, 6-(3-(6,7-dihydropyrazolo[1,5-a]pyrimidin-4(5H)-yl)-7,8-dihydro-1,6-naphthyridin-6(5H)-yl)-5-methyl-N-(1-(pyridin-2-yl)cyclopropyl)pyridazine-3-carboxamide] gave an Emax at 30 µM of 114% and an EC50 [1] of 47 nM.
In the case of `COCc1nc(Cl)c(C)c(N2CCc3ncc(-c4cn(C)nc4C)cc3C2)n1` [compound 216, 6-(6-chloro-2-(methoxymethyl)-5-methylpyrimidin-4-yl)-3-(1,3-dimethyl-1H-pyrazol-4-yl)-5,6,7,8-tetrahydro-1,6-naphthyridine], the Emax at 30 µM is reported as 94% and the EC50 [1] is reported as 864 nM.
Molecule `Cc1nc(Cl)nc(N2CCc3ncc(C4CC4)cc3C2)c1C` [compound 254, 6-(2-chloro-5,6-dimethylpyrimidin-4-yl)-3-cyclopropyl-5,6,7,8-tetrahydro-1,6-naphthyridine] has an Emax of 95% and an EC50 (Human M4 EC50, positive allosteric modulator activity) of 70 nM.
For `Cc1cc(C(=O)N2CCCC2)nnc1N1CCc2ncc(-n3cccn3)cc2C1` [Example 530, (6-(3-(1H-pyrazol-1-yl)-7,8-dihydro-1,6-naphthyridin-6(5H)-yl)-5-methylpyridazin-3-yl)(pyrrolidin-1-yl)methanone], the Emax at 30 µM was 81% and the EC50 [1] was 3030 nM.
Work on `Cc1ccncc1-c1cnc2c(c1)CN(c1nnc(C#N)c(C)c1C)CC2` [compound 55, 4,5-dimethyl-6-[3-(4-methyl-3-pyridyl)-7,8-dihydro-5H-1,6-naphthyridin-6-yl]pyridazine-3-carbonitrile] yielded an Emax at 30 µM of 76% and an EC50 [1] of 195 nM.
`Cc1nn(C)cc1-c1cnc2c(c1)CN(c1nnc(C#N)c(C)c1C)CC2` [compound 295, 6-(3-(1,3-dimethyl-1H-pyrazol-4-yl)-7,8-dihydro-1,6-naphthyridin-6(5H)-yl)-4,5-dimethylpyridazine-3-carbonitrile] was tested, and the Emax at 30 µM was 95% and the EC50 [1] was 485 nM.
For `Fc1ccccc1Oc1cnc2c(c1)CN(c1nc(Cl)nc3c1COC3)CC2` [compound 290, 2-chloro-4-(3-(2-fluorophenoxy)-7,8-dihydro-1,6-naphthyridin-6(5H)-yl)-5,7-dihydrofuro[3,4-d]pyrimidine], the EC50 [1] was 991 nM.
`Cc1ccc(OCCOc2cnc3c(c2)CN(c2ncc(C#N)cc2C)CC3)cc1` [Example 431, 5-methyl-6-(3-(2-(p-tolyloxy)ethoxy)-7,8-dihydro-1,6-naphthyridin-6(5H)-yl)nicotinonitrile] was tested, and the Emax at 30 µM was 47% and the EC50 [1] was ≥ 10000 nM.
For `Cc1cc(C(=O)NCc2ccncc2)cnc1N1CCc2ncccc2C1` [compound 61, 6-(7,8-dihydro-5H-1,6-naphthyridin-6-yl)-5-methyl-N-(4-pyridylmethyl)pyridine-3-carboxamide], the Emax at 30 µM was 67% and the EC50 [1] was 1630 nM.
In the case of `Cc1cc(C(=O)N2CCC2)nnc1N1CCc2ncc(N3CCO[C@H](C)C3)cc2C1` [Example 537, (R)-azetidin-1-yl(5-methyl-6-(3-(2-methylmorpholino)-7,8-dihydro-1,6-naphthyridin-6(5H)-yl)pyridazin-3-yl)methanone], the Emax at 30 µM is reported as 96% and the EC50 [1] is reported as 131 nM.
Molecule `Cc1cc(C#N)cnc1N1CCc2ncc(N3CCOC(c4ccccn4)C3)cc2C1` (stereo not drawn) [Example 387, 5-methyl-6-(3-(2-(pyridin-2-yl)morpholino)-7,8-dihydro-1,6-naphthyridin-6(5H)-yl)nicotinonitrile] has an Emax at 30 µM of 71% and an EC50 [1] of 861 nM.
`Cc1cc(C(=O)N(C)Cc2ccncc2)nnc1N1CCc2ncc(C(F)(F)F)cc2C1` [Example 506, N,5-dimethyl-N-(pyridin-4-ylmethyl)-6-(3-(trifluoromethyl)-7,8-dihydro-1,6-naphthyridin-6(5H)-yl)pyridazine-3-carboxamide] was tested, and the Emax at 30 µM was 84% and the EC50 [1] was 2810 nM.
`Cc1cc(C#N)cnc1N1CCc2ncc(-c3cnn(C4CCCCC4)c3)cc2C1` [compound 99, 6-[3-(1-cyclohexylpyrazol-4-yl)-7,8-dihydro-5H-1,6-naphthyridin-6-yl]-5-methyl-pyridine-3-carbonitrile] showed an Emax at 30 µM of 57% and an EC50 [1] of 740 nM.
In the case of `Cc1cc(C(=O)N2CC3(COC3)C2)nnc1N1CCc2ncc(-c3ccnn3C)cc2C1` [Example 565, (5-methyl-6-(3-(1-methyl-1H-pyrazol-5-yl)-7,8-dihydro-1,6-naphthyridin-6(5H)-yl)pyridazin-3-yl)(2-oxa-6-azaspiro[3.3]heptan-6-yl)methanone], the Emax at 30 µM is reported as 72% and the EC50 [1] is reported as 128 nM.
